Experimental data: publication PMC5463993, “Identification of an Efflux Transporter LmrB Regulating Stress Response and Extracellular Polysaccharide Synthesis in Streptococcus mutans” (Frontiers in Microbiology, 2017)

Target: T1, LmrB (Streptococcus mutans, UniProt Q8DUY5)
T1 construct: full-length (454 aa) with His-tag from pET28a, expressed in E. coli BL21 (DE3) cells; tested in whole cells
Test: fluorometric efflux assay in E. coli BL21 (DE3) expressing LmrB versus empty vector
Type: cell-based
Conditions: EtBr-loaded whole cells in PBS; CCCP (100 uM) as control blocker

T1 sequence (Q8DUY5 entry or part of it): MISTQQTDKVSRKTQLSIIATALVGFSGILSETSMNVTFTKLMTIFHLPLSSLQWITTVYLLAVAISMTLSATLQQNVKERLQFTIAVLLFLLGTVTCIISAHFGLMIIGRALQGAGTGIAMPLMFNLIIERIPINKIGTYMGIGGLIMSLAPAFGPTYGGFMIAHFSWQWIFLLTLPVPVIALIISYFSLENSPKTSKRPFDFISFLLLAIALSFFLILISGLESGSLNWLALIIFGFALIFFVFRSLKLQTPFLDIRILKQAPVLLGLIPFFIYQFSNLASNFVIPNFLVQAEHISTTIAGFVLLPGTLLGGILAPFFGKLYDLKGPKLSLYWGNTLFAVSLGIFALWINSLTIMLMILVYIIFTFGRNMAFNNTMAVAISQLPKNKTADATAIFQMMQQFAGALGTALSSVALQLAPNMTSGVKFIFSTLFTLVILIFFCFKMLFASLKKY

## CC[n+]1c(-c2ccccc2)c2cc(N)ccc2c2ccc(N)cc21 [Ethidium bromide]
  fluorometric efflux assay in E. coli BL21 (DE3) expressing LmrB versus empty vec: the efflux activity of E. coli was higher for the bacterial culture harboring cloned pET28a-lmrB
